How the values were obtained:
diabetic animal model = settings: in vivo in a diabetic animal model; cited from earlier work
[1] = Example 2: serum cholesterol in WHHL rabbits; format: in vivo, Male WHHL rabbits; settings: Groups C and D (pioglitazone 20 mg/kg; Compound A 10 mg/kg)
Experimental: (§1) Each test compound was administered for eight months to the rabbits in the form of an aqueous suspension (0.5% carboxymethylcellulose added). In the control group, a 0.5% carboxymethylcellulose solution only was administered.

WHHL rabbits [2] = test: Example 2: percentage area covered by lesions, aortic arch and whole aorta; format: in vivo, Male WHHL rabbits; parameters: Lesion Area, Aortic Arch, percentage against the control group / Lesion Area, Total Aorta, percentage against the control group: concentration or dose not given beside the values; settings: oral, eight months
Experimental: as §1
The values actually measured are represented by the mean value plus or minus standard error. The numbers in parentheses represent the percentage lesion area against the control group.
*p<0.05, **p<0.01; significant difference against the control group under the [Mann-Whitney's U-Test A significant difference (p<0.05) was observed between Groups B and F, between Groups C and E and between Groups D and F at the aortic arch, and between Groups C and E over the total aorta.

WHHL rabbits [3] = test: Example 2: average thickening of intima in aorta; format: in vivo, Male WHHL rabbits; parameters: Average thickening of intima, Aortic Arch, percentage against the control group / Average thickening of intima, Total Aorta, percentage against the control group: concentration or dose not given beside the values
Experimental: as §1
The values actually measured are represented as the mean value plus or minus a standard error (μm). The numbers in parentheses represent the percentage intimal thickening against the control group. A significant difference was observed between Groups D and F at the aortic arch, and between Groups C and E and between Groups D and F over the total aorta (p<0.05) under the Mann-Whitney's U-Test.
The average thickening of the intima is calculated by the cross-sectional area of the aortic tunica intima one section from the arch and two sections from the thoracic and abdominal portions, divided by the length of the tunica media.

WHHL rabbits [4] = test: Example 2: aortic cholesterol content; format: in vivo, Male WHHL rabbits
Experimental: as §1
The aortic cholesterol content was measured The tunica media and tunica intima at the aortic arch and at the thoracic and abdominal aorta were peeled away with tweezers and cut into pieces. The pieces were extracted with a 2:1 by volume mixture of chloroform and methanol.
The chloroform phase was separated and evaporated to dryness and the residue was dissolved in isopropanol. The total cholesterol and the free cholesterol were measured by a conventional enzymatic method.
Data are expressed by the mean plus or minus standard error (mg/g tissue). The values in parentheses indicate the percentage against the control. A significant difference against the control group was observed by the unpaired student t-test: […]

WHHL rabbits [5] = test: Example 2: incidence and degree of xanthoma of the four legs; format: in vivo, Male WHHL rabbits; parameters: Frequency of massive xanthoma: unit not given here
Experimental: as §1
The incidence and the degree of xanthoma of the four legs were measured.

[6] = system: Male New Zealand white rabbits; test: Example 3: regression of established atherosclerotic lesions in the cholesterol-fed rabbit model; format: in vivo
Experimental: The rabbits were grouped randomly (3-9 animals per group) and the test samples were administered orally for two months, while they were fed with a normolipidaemic diet. […] The results are shown in terms of the percentage of lesion area in the thoracic aorta.

[7] = oral, eight months, control 100 (14/14), *p < 0.05, **p < 0.01 vs control

Compound: CN(CCOc1ccc(CC2SC(=O)NC2=O)cc1)c1ccccn1 (stereo not shown) [BRL-49653, 5-{4-[2-methyl-2-(pyridin-2-ylamino)ethoxy]benzyl}-2,4-thiazolidinedione]
- potency higher than that of troglitazone (diabetic animal model): about 100 times

Compound: CC(=NOCCOc1ccc(CC2SC(=O)NC2=O)cc1)c1ccc(-c2ccccn2)cc1 (stereo not shown) [Compound A, 5-(4-{2-[1-(4-2'-pyridyl-phenyl)ethylideneaminooxy]ethoxy}benzyl)thiazolidine-2,4-dione]
- reduction of the serum cholesterol levels [1]: no reduction
- Lesion Area, Aortic Arch, percentage against the control group (WHHL rabbits [2]; number in parentheses): 77%
- Lesion Area, Total Aorta, percentage against the control group (WHHL rabbits [2]; number in parentheses): 76%
- Lesion Area, Total Aorta (WHHL rabbits [2]; pravastatin 50, pioglitazone 20, Compound A 10 mg/kg, mean ± standard error, *p<0.05, **p<0.01 vs control): 38 ± 8%
- Lesion Area, Aortic Arch (WHHL rabbits [2]; pravastatin 50, pioglitazone 20, Compound A 10 mg/kg, mean ± standard error, control 82 ± 5, *p<0.05, **p<0.01 vs control): 63 ± 9%
- suppression of intimal thickening (WHHL rabbits [3]; combinations compared with Groups C and D): no suppression of hypertrophy
- Average thickening of intima, Aortic Arch, percentage against the control group (WHHL rabbits [3]; number in parentheses): 123%
- Average thickening of intima, Total Aorta, percentage against the control group (WHHL rabbits [3]; number in parentheses): 105%
- Average thickening of intima in aorta, Total Aorta (WHHL rabbits [3]; oral, eight months, pravastatin 50, pioglitazone 20, Compound A 10 mg/kg, mean ± standard error, control 154 ± 33): 162 ± 22 μm
- Average thickening of intima in aorta, Aortic Arch (WHHL rabbits [3]; oral, eight months, pravastatin 50, pioglitazone 20, Compound A 10 mg/kg, mean ± standard error, control 237 ± 63): 291 ± 51 μm
- Cholesterol level of Thoracic and Abdominal Aorta, Esterified (WHHL rabbits [4]; mean ± standard error, control 5.3 ± 1.7): 4.9 ± 0.9 mg/g tissue
- Cholesterol Content of Aortic Arch, Esterified (WHHL rabbits [4]; mean ± standard error, control 6.5 ± 1.4, *p < 0.05): 4.5 ± 1.3 mg/g tissue
- Cholesterol level of Thoracic and Abdominal Aorta, Free (WHHL rabbits [4]; mean ± standard error, control 14.8 ± 2.3, *p < 0.05 vs control): 9.2 ± 1.0 mg/g tissue
- Cholesterol level of Thoracic and Abdominal Aorta, Total (WHHL rabbits [4]; mean ± standard error, control 20.1 ± 2.3, *p < 0.05, **p < 0.02 vs control): 14.0 ± 1.7 mg/g tissue
- Cholesterol Content of Aortic Arch, Free (WHHL rabbits [4]; mean ± standard error, control 20.6 ± 2.9): 16.9 ± 1.8 mg/g tissue
- Cholesterol Content of Aortic Arch, Total (WHHL rabbits [4]; mean ± standard error, control 27.1 ± 3.3): 21.4 ± 0.7 mg/g tissue
- Cholesterol Content of Aortic Arch, Esterified, percentage against the control (WHHL rabbits [4]; number in parentheses): 69%
- Cholesterol Content of Aortic Arch, Free, percentage against the control (WHHL rabbits [4]; number in parentheses): 82%
- Cholesterol Content of Aortic Arch, Total, percentage against the control (WHHL rabbits [4]; number in parentheses): 79%
- Cholesterol level of Thoracic and Abdominal Aorta, Esterified, percentage against the control (WHHL rabbits [4]; number in parentheses): 92%
- Cholesterol level of Thoracic and Abdominal Aorta, Free, percentage against the control (WHHL rabbits [4]; number in parentheses): 62%
- Cholesterol level of Thoracic and Abdominal Aorta, Total, percentage against the control (WHHL rabbits [4]; number in parentheses): 70%
- Frequency of massive xanthoma (WHHL rabbits [5]; control 57, *p < 0.05, **p < 0.01 vs control): 21
- incidence of xanthoma (WHHL rabbits [5]; forelegs and hindlegs): slightly less frequent incidence of xanthoma
- Distribution of severity of lesion: (-) no lesions (WHHL rabbits [5]; number of legs, control 0): 3
- Distribution of severity of lesion: (+++) severe lesion (WHHL rabbits [5]; number of legs, control 6): 0
- Distribution of severity of lesion: (++) moderate lesion (WHHL rabbits [5]; number of legs, control 10): 6
- Distribution of severity of lesion: (+) slight lesion (WHHL rabbits [5]; number of legs, control 12): 19
- Incidence of xanthoma, Forelegs (WHHL rabbits [5]; [7]): 93%
- Incidence of xanthoma, Hindlegs (WHHL rabbits [5]; [7]): 86%
- Incidence of xanthoma, Total (WHHL rabbits [5]; oral, eight months, control 100 (28/28), *p < 0.05, **p < 0.01 vs control): 89%
- Rate of lesion area, against the control group ([6]; 2.5 mg/kg, figure in parentheses): 93
- Rate of lesion area ([6]; thoracic aorta, 2.5 mg/kg oral, two months, mean ± standard error, control 29 ± 20): 27 ± 7%

— US5798375A, “Treatment of arteriosclerosis and xanthoma” (Sankyo Company, Limited, priority 1995, dated 1998)
